Assay results as given in ChEMBL document CHEMBL5465560, “Selectivity Literature for EUbOPEN Chemogenomic Library” (2024).

Tests used:
[1] = target: RAC-alpha serine/threonine-protein kinase (Homo sapiens, UniProt P31749); experiment: Selectivity interaction (Ambit KINOMEscan and KiNATiv profiling in Jurkat cells) EUB0000090b AKT1; format: cell-based; settings: at 1 µM
[2] = target: T1, Serine/threonine-protein kinase TAO3 (Homo sapiens) (UniProt Q9H2K8); experiment: Selectivity interaction (KinomeScan (DiscoverX)) EUB0000655a TAOK3; settings: at 10 µM
T1 sequence (whole entry): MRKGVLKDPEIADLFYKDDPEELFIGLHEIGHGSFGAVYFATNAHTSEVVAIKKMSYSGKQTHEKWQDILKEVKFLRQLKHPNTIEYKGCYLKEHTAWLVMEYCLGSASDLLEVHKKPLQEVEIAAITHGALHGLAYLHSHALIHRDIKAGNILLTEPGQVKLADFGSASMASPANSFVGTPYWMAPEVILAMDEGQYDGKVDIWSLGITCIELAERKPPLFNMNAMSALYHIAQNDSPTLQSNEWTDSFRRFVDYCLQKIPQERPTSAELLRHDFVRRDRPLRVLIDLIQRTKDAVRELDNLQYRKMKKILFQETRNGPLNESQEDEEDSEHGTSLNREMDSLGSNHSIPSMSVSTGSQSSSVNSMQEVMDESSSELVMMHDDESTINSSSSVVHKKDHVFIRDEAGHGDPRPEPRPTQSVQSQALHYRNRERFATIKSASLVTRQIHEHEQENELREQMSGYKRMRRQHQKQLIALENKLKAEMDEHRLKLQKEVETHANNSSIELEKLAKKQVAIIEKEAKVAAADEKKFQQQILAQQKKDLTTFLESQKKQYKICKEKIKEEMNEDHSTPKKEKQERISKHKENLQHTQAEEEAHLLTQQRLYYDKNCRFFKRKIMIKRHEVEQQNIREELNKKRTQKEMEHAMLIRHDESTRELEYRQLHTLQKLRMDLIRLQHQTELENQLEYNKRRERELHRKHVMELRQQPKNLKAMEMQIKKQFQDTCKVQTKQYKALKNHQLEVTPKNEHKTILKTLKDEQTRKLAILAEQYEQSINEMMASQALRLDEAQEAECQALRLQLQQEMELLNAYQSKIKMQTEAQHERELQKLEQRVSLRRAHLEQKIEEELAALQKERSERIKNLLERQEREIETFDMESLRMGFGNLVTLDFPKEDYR

[3] = target: Ephrin type-A receptor 2 (Homo sapiens) (UniProt P29317); experiment: Selectivity interaction (KinomeScan (DiscoverX)) EUB0001619a EPHA2; settings: at 1 µM
Sequence of Ephrin type-A receptor 2 (Homo sapiens) (P29317 whole entry): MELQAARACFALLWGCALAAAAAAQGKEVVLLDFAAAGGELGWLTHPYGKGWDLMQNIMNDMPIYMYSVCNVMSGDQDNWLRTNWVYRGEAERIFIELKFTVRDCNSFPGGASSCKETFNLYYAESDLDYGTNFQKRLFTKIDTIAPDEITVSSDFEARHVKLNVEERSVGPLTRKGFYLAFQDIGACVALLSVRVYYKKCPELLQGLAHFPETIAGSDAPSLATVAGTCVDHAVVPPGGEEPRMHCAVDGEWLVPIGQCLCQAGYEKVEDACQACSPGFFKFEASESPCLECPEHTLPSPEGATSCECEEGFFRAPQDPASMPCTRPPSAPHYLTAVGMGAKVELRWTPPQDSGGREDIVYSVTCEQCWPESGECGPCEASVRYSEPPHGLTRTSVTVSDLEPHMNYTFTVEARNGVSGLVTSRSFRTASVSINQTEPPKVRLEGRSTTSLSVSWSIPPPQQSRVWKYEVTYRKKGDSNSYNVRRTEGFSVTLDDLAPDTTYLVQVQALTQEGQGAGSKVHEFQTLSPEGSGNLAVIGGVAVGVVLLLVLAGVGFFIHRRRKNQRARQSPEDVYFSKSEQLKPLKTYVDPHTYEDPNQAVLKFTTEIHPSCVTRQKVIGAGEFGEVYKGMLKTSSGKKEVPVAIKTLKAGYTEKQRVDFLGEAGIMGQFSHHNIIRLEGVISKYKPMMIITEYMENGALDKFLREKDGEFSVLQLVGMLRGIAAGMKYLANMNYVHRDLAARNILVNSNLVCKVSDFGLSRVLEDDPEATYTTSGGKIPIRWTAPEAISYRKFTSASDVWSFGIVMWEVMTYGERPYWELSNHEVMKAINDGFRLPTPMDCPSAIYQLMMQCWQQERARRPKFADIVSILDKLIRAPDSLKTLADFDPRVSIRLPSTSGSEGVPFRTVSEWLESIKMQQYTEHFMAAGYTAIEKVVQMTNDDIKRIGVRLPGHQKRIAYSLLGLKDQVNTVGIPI

[4] = target: Insulin-like growth factor 1 receptor (Homo sapiens, UniProt P08069); experiment: Selectivity interaction (KinomeScan (DiscoverX)) EUB0000595a IGF1R; settings: at 10 µM
Sequence of Insulin-like growth factor 1 receptor (P08069 31-736 limits assumed): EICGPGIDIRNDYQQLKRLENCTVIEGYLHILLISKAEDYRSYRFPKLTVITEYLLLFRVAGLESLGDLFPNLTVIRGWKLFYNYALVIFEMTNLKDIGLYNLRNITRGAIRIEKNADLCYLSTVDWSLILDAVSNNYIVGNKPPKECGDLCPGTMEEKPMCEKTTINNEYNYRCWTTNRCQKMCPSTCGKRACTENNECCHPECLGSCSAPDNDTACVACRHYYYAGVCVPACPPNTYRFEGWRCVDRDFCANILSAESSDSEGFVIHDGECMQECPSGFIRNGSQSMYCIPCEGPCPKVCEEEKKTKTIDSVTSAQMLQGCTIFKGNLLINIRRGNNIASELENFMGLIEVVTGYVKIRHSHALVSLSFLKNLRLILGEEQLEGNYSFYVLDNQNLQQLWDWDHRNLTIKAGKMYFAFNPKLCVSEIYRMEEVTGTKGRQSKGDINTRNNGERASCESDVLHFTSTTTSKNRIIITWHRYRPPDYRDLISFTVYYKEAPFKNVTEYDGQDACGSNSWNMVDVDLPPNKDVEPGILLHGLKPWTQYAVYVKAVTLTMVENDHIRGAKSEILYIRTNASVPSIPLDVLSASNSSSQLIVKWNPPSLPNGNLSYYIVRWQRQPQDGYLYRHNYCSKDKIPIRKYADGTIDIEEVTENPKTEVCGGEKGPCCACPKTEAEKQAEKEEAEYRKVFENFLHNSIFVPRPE
Sequence of Insulin-like growth factor 1 receptor (P08069 741-1367 limits assumed): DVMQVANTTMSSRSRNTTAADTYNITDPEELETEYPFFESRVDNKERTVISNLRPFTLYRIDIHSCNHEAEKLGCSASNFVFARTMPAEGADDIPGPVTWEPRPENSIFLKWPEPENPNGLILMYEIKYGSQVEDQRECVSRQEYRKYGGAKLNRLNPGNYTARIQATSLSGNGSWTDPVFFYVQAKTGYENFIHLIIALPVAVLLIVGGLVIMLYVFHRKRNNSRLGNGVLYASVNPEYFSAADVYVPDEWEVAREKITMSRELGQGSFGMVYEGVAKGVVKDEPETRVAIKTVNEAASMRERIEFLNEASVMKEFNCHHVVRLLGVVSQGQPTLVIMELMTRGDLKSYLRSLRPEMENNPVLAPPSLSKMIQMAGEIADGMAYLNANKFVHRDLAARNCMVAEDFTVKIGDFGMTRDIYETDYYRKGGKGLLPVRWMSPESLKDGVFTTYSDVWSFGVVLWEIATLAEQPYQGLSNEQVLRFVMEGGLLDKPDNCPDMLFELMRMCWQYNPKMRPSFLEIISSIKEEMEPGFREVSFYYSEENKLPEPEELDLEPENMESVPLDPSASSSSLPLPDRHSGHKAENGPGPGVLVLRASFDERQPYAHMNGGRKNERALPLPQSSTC

[5] = target: Calcium/calmodulin-dependent protein kinase type II subunit beta (Homo sapiens) (UniProt Q13554); experiment: Selectivity interaction (ActivX KiNativ screen (kinase selectivity in THP-1 cell lysates)) EUB0000639a CAMK2B; format: subcellular; settings: lysate
Sequence of Calcium/calmodulin-dependent protein kinase type II subunit beta (Homo sapiens) (Q13554 whole entry): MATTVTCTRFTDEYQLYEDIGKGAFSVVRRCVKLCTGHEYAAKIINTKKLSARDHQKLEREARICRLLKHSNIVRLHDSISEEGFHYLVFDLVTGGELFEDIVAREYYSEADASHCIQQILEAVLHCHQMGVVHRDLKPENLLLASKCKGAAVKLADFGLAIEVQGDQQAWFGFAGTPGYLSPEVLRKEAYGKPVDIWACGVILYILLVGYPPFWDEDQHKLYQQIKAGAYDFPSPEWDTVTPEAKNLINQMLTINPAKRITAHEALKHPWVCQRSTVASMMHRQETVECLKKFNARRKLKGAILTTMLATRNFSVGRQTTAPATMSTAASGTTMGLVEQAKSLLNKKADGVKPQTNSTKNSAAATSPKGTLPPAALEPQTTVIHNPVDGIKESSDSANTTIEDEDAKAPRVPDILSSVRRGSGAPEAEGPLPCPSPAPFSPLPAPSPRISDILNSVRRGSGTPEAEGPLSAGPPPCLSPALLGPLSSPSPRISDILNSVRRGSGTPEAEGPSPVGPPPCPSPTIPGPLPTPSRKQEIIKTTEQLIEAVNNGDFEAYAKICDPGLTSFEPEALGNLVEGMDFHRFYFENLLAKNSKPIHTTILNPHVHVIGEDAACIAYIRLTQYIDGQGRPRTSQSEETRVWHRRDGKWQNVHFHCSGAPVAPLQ

[6] = target: T2, Inhibitor of nuclear factor kappa-B kinase subunit beta (Homo sapiens) (UniProt O14920); experiment: Selectivity interaction (ActivX KiNativ screen (kinase selectivity in THP-1 cell lysates)) EUB0000639a IKBKB; format: subcellular; settings: lysate, at 5 µM
T2 sequence (whole entry): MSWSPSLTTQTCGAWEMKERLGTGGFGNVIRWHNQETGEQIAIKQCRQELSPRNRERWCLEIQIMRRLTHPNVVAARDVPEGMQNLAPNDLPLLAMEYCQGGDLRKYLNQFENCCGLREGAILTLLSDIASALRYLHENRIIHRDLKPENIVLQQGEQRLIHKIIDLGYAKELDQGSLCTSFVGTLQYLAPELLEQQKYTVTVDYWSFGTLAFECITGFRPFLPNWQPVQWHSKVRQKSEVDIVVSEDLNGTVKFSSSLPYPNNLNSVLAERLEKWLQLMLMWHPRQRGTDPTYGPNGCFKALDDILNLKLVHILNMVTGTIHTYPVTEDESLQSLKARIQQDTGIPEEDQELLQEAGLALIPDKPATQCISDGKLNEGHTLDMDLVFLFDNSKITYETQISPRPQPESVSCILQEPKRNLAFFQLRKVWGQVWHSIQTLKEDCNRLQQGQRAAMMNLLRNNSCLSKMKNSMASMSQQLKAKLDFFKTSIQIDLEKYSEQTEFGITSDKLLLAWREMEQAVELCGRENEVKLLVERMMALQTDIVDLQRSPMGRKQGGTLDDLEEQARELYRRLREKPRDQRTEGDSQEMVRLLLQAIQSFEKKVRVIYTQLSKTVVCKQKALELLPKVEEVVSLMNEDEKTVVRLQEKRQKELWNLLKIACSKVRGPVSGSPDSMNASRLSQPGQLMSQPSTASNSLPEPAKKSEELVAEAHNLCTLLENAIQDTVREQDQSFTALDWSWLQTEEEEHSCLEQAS

[7] = target: Phosphatidylinositol 4-phosphate 3-kinase C2 domain-containing subunit beta (Homo sapiens) (UniProt O00750); experiment: Selectivity interaction (Kinase panel (Invitrogen)) EUB0000639a PIK3C2B; settings: at 200 nM
Sequence of Phosphatidylinositol 4-phosphate 3-kinase C2 domain-containing subunit beta (Homo sapiens) (O00750 whole entry, the tested form may be a part): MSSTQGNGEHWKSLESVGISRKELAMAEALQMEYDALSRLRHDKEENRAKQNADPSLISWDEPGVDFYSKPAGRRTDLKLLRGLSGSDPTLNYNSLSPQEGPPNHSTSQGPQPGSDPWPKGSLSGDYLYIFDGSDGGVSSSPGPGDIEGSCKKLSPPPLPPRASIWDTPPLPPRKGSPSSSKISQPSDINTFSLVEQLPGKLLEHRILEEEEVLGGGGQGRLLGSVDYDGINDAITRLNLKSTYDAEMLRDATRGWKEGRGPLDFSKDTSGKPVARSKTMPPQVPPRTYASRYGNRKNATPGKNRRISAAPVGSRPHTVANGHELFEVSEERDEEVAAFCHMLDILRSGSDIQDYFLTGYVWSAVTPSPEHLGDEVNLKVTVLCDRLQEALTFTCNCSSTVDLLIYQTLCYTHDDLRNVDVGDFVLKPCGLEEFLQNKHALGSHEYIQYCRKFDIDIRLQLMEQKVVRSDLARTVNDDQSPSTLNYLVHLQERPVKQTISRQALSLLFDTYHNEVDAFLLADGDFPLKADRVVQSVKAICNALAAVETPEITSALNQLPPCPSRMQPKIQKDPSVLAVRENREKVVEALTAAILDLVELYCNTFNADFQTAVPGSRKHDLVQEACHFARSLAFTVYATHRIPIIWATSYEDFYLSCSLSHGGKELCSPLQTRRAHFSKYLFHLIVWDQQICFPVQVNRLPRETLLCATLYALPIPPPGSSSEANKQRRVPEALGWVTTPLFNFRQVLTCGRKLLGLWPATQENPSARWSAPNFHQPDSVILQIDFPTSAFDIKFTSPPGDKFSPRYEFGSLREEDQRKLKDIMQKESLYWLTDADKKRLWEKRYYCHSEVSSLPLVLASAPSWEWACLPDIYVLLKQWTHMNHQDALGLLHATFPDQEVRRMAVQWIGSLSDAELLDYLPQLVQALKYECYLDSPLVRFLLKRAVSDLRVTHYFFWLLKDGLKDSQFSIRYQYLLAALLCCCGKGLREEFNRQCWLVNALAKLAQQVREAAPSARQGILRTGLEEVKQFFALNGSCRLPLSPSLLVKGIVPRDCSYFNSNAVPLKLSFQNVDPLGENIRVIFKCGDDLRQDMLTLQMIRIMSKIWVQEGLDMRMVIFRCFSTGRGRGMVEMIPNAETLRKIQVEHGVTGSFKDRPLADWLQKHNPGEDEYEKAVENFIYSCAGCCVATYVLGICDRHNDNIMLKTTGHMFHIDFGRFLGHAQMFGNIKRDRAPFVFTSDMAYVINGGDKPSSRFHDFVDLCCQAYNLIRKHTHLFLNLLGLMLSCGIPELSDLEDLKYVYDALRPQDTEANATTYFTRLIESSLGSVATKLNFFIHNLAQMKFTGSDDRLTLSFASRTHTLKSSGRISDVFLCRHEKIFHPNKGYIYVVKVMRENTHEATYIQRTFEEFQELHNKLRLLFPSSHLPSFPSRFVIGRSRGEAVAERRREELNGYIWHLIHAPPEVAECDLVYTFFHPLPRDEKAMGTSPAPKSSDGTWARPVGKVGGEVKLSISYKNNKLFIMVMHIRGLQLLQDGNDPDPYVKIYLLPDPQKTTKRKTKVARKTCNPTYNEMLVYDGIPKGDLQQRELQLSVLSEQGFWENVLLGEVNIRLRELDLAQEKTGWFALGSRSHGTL

[8] = target: T3, Serine/threonine-protein kinase haspin (Homo sapiens) (UniProt Q8TF76); experiment: Selectivity interaction (KinomeScan (DiscoverX)) EUB0000695a GSG2; settings: at 100 nM
T3 sequence (whole entry): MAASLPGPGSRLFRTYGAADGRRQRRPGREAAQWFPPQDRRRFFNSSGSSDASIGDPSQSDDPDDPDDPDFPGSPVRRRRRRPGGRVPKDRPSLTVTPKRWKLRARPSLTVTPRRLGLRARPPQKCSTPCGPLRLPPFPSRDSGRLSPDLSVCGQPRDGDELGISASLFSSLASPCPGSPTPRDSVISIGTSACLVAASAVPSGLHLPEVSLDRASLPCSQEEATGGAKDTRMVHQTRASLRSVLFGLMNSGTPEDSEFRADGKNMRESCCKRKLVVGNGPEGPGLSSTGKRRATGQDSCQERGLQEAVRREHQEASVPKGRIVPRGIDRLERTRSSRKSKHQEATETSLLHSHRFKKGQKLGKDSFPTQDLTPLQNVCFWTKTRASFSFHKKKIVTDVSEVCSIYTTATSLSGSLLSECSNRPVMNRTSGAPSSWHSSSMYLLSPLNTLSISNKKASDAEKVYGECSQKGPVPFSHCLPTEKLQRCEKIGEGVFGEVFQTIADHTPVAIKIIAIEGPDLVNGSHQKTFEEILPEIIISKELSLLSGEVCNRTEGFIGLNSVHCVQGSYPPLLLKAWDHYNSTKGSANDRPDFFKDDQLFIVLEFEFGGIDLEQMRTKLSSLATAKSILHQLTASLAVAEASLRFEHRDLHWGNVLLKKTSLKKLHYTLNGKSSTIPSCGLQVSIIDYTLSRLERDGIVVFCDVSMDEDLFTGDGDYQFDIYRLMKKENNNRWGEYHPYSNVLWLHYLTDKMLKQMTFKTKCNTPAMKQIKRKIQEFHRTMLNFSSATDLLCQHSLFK

Sequence of RAC-alpha serine/threonine-protein kinase (P31749 whole entry): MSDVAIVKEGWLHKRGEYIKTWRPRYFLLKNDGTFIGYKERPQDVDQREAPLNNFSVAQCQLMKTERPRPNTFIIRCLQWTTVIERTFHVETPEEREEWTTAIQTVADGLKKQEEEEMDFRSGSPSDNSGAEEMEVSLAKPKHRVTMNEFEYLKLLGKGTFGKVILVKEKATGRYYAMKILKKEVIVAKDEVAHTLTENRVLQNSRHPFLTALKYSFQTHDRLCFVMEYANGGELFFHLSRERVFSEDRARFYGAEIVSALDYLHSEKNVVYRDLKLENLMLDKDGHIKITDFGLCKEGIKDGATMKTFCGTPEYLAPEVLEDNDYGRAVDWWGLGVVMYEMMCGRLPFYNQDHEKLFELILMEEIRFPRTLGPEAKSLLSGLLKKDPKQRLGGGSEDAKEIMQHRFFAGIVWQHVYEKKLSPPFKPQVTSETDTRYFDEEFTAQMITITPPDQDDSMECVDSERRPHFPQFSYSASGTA

CN(C)C/C=C/C(=O)Nc1ccc(C(=O)N2CCCC(Nc3ncc(Cl)c(-c4c[nH]c5ccccc45)n3)C2)cc1 (configuration not stated)
% of control [1]: 92%

CN(C)CCOc1ccc(-c2nc(-c3ccncc3)c(-c3ccc4c(c3)CC/C4=N\O)[nH]2)cc1
% of control [2]: 75%

N#Cc1cccc(-c2c[nH]c3ncnc(N4CCOCC4)c23)c1
% of control [3]: 100%

COCC(=O)NC/C=C/c1ccc2ncnc(Nc3ccc(Oc4ccc(C)nc4)c(C)c3)c2c1 [CP-724714]
% of control [4]: 83%

CC[C@@H]1[C@H](F)C(=O)N[C@@H]1COc1nccc2cc(C(N)=O)c(OC)cc12 [ZIMLOVISERTIB]
% of inhibition ([5]; at 0.01 µM): 3.3%
% of inhibition ([5]; at 0.04 µM): 16.7%
% of inhibition ([5]; at 0.2 µM): 6.9%
% of inhibition ([5]; at 1 µM): 25.1%
% of inhibition ([5]; at 5 µM): 56.2%
% of inhibition [6]: -9.2%
% of inhibition [7]: 7.24%

Cc1cc(F)c(C(=O)Nc2cccc(-c3nncn3C(C)C)n2)cc1-n1cnc(C2CC2)c1
% of control [8]: 100%
